Laboratory results reported in patent US12636261B2, “Treatment of inflammation initiated by the spinal cord injury, the traumatic brain injury, stroke, in inhibition of cerebral and spinal cord edema and of inflammation in neurodegenerative, immune mediated and infectious diseases of the central nervous system” (priority 2021, dated 2026).
Read-outs that look alike come from different tables or passages of the source.

What was measured:
[1] = Body Weight Change after the SCI surgery; format: in vivo, rat (Long Evans); conditions: 5 mg/rat/day oral
Experimental: The Body Weight Change after the SCI surgery is recorded every 3rd day [Kwiecien et al, 2019, 2020b 2021c].
(§1) Healthy male Long Evans rats aged 12 weeks, 330-360 g, were offered a fruit flavored jello cube twice a day for 1 week prior to the surgery and were separated in individual cages 3 days before the surgery. Rats were induced with 5% isoflurane in 95% oxygen flowing at a rate of 1 liter per minute and maintained at 3.5% isoflurane in 96.5% oxygen. The anaesthetized rats had the skin on the back shaved and prepared for surgery with 70% ethyl alcohol and 10% iodine swabs. The skin was cut over the caudal thoracic and lumbar spine and spinal muscles dissected from the vertebral spine of the thoracic 10 (T10) vertebrum and the dorsal arches of this vertebrum removed. A 3Fogarty catheter was inserted via this laminectomy over the intact dura towards the head to place the caudal edge of the 3 mm long balloon at 1 cm rostral to the laminectomy. […] In the initial experiment designed to determine the anti-inflammatory effect of 0.2, 1.0 and 5 mg per day of xanthohumol (Sigma-Aldrich) after the surgery, the rats were offered a jello cube with half of the above dose twice a day, at 8-9 hours and 15-16 hours intervals, and the consumption of the jello cube was observed and recorded every day for 7 days. […]

[2] = tested on: phagocytic macrophages in the cavity of injury (COI); test: Macrophage Count in the Cavity of Injury (COI), histology LFB+H&E; format: in vivo, rat (Long Evans); conditions: for macrophage numbers in the COI, % of the untreated controls (100%): 7 days post-SCI
Experimental: The histologic examination is performed in the series of consecutive sections, […], of the spinal cord including the lesion, stained with luxol fast blue and counterstained with hematoxylin and eosin (LFB+H&E). A necrotic and hemorrhagic lesion deep in the spinal cord is infiltrated starting at the day 3, by numerous inflammatory, CD68+/CD163− macrophages that phagocytize myelin-rich necrotic debris and red blood cells. The numbers of macrophages rapidly increase and remain high for 4 weeks after SCI after which they gradually decline [Kwiecien et al, 2020a]. Within the first week post-SCI the deep lesion is transformed into a cavity of injury (COI) when it starts to accumulate excess water from edema in the surrounding spinal cord [Kwiecien et al, 2020a, 2021d]. The macrophage count is performed in a COI in the injured spinal cord of untreated and treated rats in a standardized fashion at fixed periods of time post-surgery to determine a degree of reduction of macrophage numbers related to a tested anti-inflammatory agent [Kwiecien et al, 2019; 2020a, 2020b, 2021c]. This reduction in numbers of macrophages plotted against such numbers in controls is reliably indicative of a therapeutic effect of an anti-inflammatory agent.
Healthy male Long Evans rats aged 12 weeks, 330-360 g, were offered a fruit flavored jello cube twice a day for 1 week prior to the surgery and were separated in individual cages 3 days before the surgery. Rats were induced with 5% isoflurane in 95% oxygen flowing at a rate of 1 liter per minute and maintained at 3.5% isoflurane in 96.5% oxygen. The anaesthetized rats had the skin on the back shaved and prepared for surgery with 70% ethyl alcohol and 10% iodine swabs. The skin was cut over the caudal thoracic and lumbar spine and spinal muscles dissected from the vertebral spine of the thoracic 10 (T10) vertebrum and the dorsal arches of this vertebrum removed. A 3Fogarty catheter was inserted via this laminectomy over the intact dura towards the head to place the caudal edge of the 3 mm long balloon at 1 cm rostral to the laminectomy. The balloon was inflated with 15 µL of sterile saline for 3 minutes, then deflated and the catheter removed. The spinal muscles were closed with absorbable sutures over the laminectomy and the skin incision was closed with stainless steel staples. Before awakening, the rats were administered; 50 μL of a painkiller Anafen (ketoprofen, 100 mg/mL, Merial) subcutaneously for pain, and 50 µL of Baytril antibiotic (enrofloxacin 50 mg/mL, Bayer) intramuscular, and 3 mL of saline subcutaneous. In the initial experiment designed to determine the anti-inflammatory effect of 0.2, 1.0 and 5 mg per day of xanthohumol (Sigma-Aldrich) after the surgery, the rats were offered a jello cube with half of the above dose twice a day, at 8-9 hours and 15-16 hours intervals, and the consumption of the jello cube was observed and recorded every day for 7 days. Each treatment group had 5 rats. In the second phase of the experiment 1 jello cube alone or jello cube with 2.5 mg xanthohumol was offered twice a day for 1, 2, 4, 6, and 8 weeks. Each treatment group had 6-7 rats.
At a required experimental time point; 1, 2, 4, 6, or 8 weeks post-surgery, the SCI rats were overdosed with the sodium pentobarbital (80 mg/kg b.w.) administered intraperitoneally. When in deep plane of anaesthesia, the chest was cut open, 100 international units of heparin sodium injected into the left heart ventricle and a cannula with flowing lactated Ringer's solution inserted into the left ventricle while the right auricle was cut open. After the blood was washed out, the flow of the lactated Ringer's solution was replaced by that of phosphate buffered formalin and the carcass was fixed.
The spine was removed, postfixed in formalin overnight and then placed in formalin supplemented with 8% EDTA, pH 7.0, to decalcify the spinal vertebrae. The decalcifying solution was replaced by fresh one every 2 days for 2 weeks. […]

[3] = cited from earlier work
[4] = tested on: rat model of SCI (balloon crush spinal cord injury); test: Toe Pinch Withdrawal test in the rat model of SCI; format: in vivo, rat (Long Evans); conditions: 5 mg/rat/day oral, treatment groups 2-8 weeks post-SCI; ANOVA
Description: In the Toe Pinch Withdrawal test, performed once every day in rats held by the tail, the sensory function and the strength of both hind limbs are scored 0-6 with 0=complete loss of reaction to the toe pinch and 6=strong, normal withdrawal in both legs after the toe pinch [Kwiecien et al, 2019, 2020b, 2020c].
Healthy male Long Evans rats aged 12 weeks, 330-360 g, were offered a fruit flavored jello cube twice a day for 1 week prior to the surgery and were separated in individual cages 3 days before the surgery. Rats were induced with 5% isoflurane in 95% oxygen flowing at a rate of 1 liter per minute and maintained at 3.5% isoflurane in 96.5% oxygen. […] In the initial experiment designed to determine the anti-inflammatory effect of 0.2, 1.0 and 5 mg per day of xanthohumol (Sigma-Aldrich) after the surgery, the rats were offered a jello cube with half of the above dose twice a day, at 8-9 hours and 15-16 hours intervals, and the consumption of the jello cube was observed and recorded every day for 7 days. […]
2. The Toe Pinch Withdrawal test [Kwiecien et al, 2021c] was performed once a day in rats held by the tail in the cage and the presence and strength of both hind legs scored 0-6 where 0=no response to the toe pinch and 6=strong, normal withdrawal response to the toe pinch in both legs.

[5] = cited from earlier work; remark: listed apart in the source
[6] = tested on: rat model of SCI (balloon crush spinal cord injury); test: Duration of Paralysis of the Urinary Bladder in SCI rats; format: in vivo, rat (Long Evans); conditions: 5 mg/rat/day oral
Description: as §1
4. The duration of the distention of the urinary bladder that required manual voiding until the normal function of the urinary bladder was restored, in days, was recorded.

[7] = tested on: rat model of SCI (balloon crush spinal cord injury); test: Hind End Locomotor test in the rat model of SCI; format: in vivo, rat (Long Evans); conditions: 5 mg/rat/day oral (2.5 mg twice a day in jello), treatment groups 2-8 weeks post-SCI; ANOVA
Experimental: In the Hind End Locomotor test, performed once every day in unrestrained rats in the cage, the motor function is measured with movements of both hind legs scored 0-6 with 0=complete paralysis and 6=normal gait [Kwiecien et al, 2019, 2020b, 2020c].
as §1, with “removed.” for “removed. A 3Fogarty catheter was inserted via this laminectomy over the intact dura towards the head to place the caudal edge of the 3 mm long balloon at 1 cm rostral to the laminectomy.”
1. […] The motor function of the hind limbs was scored from 0-6 where 0=complete paralysis of both hind legs and 6=normal locomotion.

[8] = tested on: SCI rats; test: Toxicity observation in SCI rats under oral xanthohumol; format: in vivo; conditions: twice a day, 5 mg per day (approx. 15 mg/kg), up to 8 weeks
Description: as §1, with “laminectomy. The balloon was inflated with 15 µL of sterile saline for 3 minutes, then deflated and the catheter removed.” for “laminectomy.”

[9] = tested on: mice; conditions: cited from earlier work
[10] = tested on: rats; conditions: cited from earlier work
[11] = cited from earlier work; for bioavailability: Wistar rats

SMILES: COc1cc(O)c(CC=C(C)C)c(O)c1C(=O)/C=C/c1ccc(O)cc1 [xanthohumol, 2′,4′,4-trihydroxy-6′-methoxy-3′-prenylchalcone]
- body weight change vs untreated controls ([1]; groups 1, 2 and 8 weeks post-SCI): no statistical difference
- body weight recovery post-surgery vs untreated controls ([1]; groups treated for 4 and 6 weeks): recovered statistically sooner and to a greater degree
- macrophage numbers in the COI, % of the untreated controls (100%) ([2]; 0.2 mg/rat/day oral, not statistically significant): 73.7%
- macrophage numbers in the COI, % of the untreated controls (100%) ([2]; 1.0 mg/rat/day oral, p=0.026): 63.9%
- macrophage counts in the COI, % of the controls ([2]; 5 mg/rat/day oral, 1 week post-SCI, second phase): 57.0%
- macrophage counts in the COI, % of the controls ([2]; 5 mg/rat/day oral, 2 weeks post-SCI): 60.7%
- macrophage counts in the COI, % of the controls ([2]; 5 mg/rat/day oral, 4 weeks post-SCI): 14.1%
- macrophages in the COI on histologic sections (FIG. 7) ([2]; 5 mg/rat/day oral, 6 and 8 weeks post-SCI): rare or absent
- macrophage counts in the COI, % of the controls ([2]; 5 mg/rat/day oral, 6 weeks post-SCI): 22.9%
- macrophage counts in the COI, % of the controls ([2]; 5 mg/rat/day oral, 8 weeks post-SCI, not statistically different): 32.7%
- macrophage numbers in the COI, % of the untreated controls (100%) ([2]; 5.0 mg/rat/day oral, dose-response study, p=0.0013): 53.8%
- solubility in water [3]: poorly
- Toe Pinch Withdrawal test score (0-6) vs untreated rats [4]: statistically better
- bioavailability after oral administration [5]: approximately 1%
- recovery of the urinary bladder function vs untreated rats ([6]; 4 weeks treatment group): significantly faster
- recovery of the urinary bladder function vs untreated rats ([6]; 6 weeks treatment group): tendency for the paralyzed urinary bladder to recover faster than in controls
- Hind End Locomotor test score (0-6) vs untreated rats [7]: significantly higher scores
- toxicity of xanthohumol [8]: not observed
- toxicity after long administration of large doses [9]: no toxicity
- toxic effect of daily oral administration ([10]; 16.9 mg/kg body weight daily oral): no toxic effect
- toxicity after long administration of large doses [10]: no toxicity
- half-life ([11]; 10 mg/kg intravenously): 7.67 h
- bioavailability ([11]; oral 40 mg/kg): 1.16%
- bioavailability ([11]; oral 200 mg/kg): 0.53%
